Data taken from patent publication US8563553B2, “Compounds and compositions as protein kinase inhibitors” (Novartis AG, priority 2009, dated 2013).

These compounds were tested against b-Raf(V600E) (Homo sapiens (Human), UniProt P15056, V600E) (assay: Raf/Mek Amplified Luminescence Proximity Homogeneous Assay (Alpha Screen)). Settings: b-Raf(V600E) approximately 4 pM; biotinylated Mek, kinase dead approximately 10 nM; ATP 10 μM; pre-incubation 60 minutes; reaction 3 hours at room temperature; read-out: mut-B-RAF IC50.
b-Raf(V600E), sequence (P15056 whole entry V600E): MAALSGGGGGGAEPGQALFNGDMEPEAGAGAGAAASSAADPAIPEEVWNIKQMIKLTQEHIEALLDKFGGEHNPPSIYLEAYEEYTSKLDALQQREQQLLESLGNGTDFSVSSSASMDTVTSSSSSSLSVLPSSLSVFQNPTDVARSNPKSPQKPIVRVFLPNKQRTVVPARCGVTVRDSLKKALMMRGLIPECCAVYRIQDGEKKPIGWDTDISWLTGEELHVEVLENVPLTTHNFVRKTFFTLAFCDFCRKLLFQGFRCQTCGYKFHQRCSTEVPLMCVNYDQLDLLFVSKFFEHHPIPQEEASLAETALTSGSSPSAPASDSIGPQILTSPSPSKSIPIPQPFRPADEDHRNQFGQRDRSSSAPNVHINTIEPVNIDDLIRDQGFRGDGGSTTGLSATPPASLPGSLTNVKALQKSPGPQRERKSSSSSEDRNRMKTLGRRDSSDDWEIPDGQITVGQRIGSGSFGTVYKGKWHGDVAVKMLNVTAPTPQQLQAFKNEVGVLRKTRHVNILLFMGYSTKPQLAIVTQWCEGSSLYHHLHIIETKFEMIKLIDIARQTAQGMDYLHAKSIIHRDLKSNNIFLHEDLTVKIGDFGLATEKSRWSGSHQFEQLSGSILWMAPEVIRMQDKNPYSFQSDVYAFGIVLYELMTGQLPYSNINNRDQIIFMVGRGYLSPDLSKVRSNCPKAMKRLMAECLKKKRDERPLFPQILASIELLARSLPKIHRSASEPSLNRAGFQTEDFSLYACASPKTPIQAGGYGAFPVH
Type: biochemical
Description: Raf/Mek Amplified Luminescence Proximity Homogeneous Assay
Assay buffer: 50 mM Tris, pH 7.5, 15 mM MgCl2, 0.01% Bovine Serum Albumin (BSA), 1 mM dithiothreitol (DTT) Stop buffer: 60 mM ethylenediaminetetraacetic acid (EDTA), 0.01% Tween® 20 Bead buffer: 50 mM Tris, pH 7.5, 0.01% Tween® 20 […]
biotinylated Mek, kinase dead
Alpha Screen detection kit (available from PerkinElmer™, #6760617R)
Anti phospho-MEK1/2 (available from Cell Signaling Technology, Inc. #9121) 384 well assay plates (White Greiner® plates, #781207) […]
biotinylated Mek, Kinase dead approximately 10 nM
Pre-incubation time with compounds 60 minutes at room temperature
Reaction time 1 or 3 hours at room temperature
Raf and biotinylated Mek, kinase dead, were combined at 2× final concentrations in assay buffer (50 mM Tris, pH 7.5, 15 mM MgCl2, 0.01% BSA and 1 mM DTT) and dispensed 10 μl per well in assay plates (Greiner white 384 well assay plates #781207) containing 0.5 μl of 40× of a raf kinase inhibitor test compound diluted in 100% DMSO. The plate was incubated for 60 minutes at room temperature.
The Raf kinase activity reaction was started by the addition of 10 μL per well of 2×ATP diluted in assay buffer. […] Phosphorylated product was measured using a rabbit anti-p-MEK (Cell Signaling, #9121) antibody and the Alpha Screen IgG (ProteinA) detection Kit (PerkinElmer #6760617R), by the addition of 30 μL to the well of a mixture of the antibody (1:2000 dilution) and detection beads (1:2000 dilution of both beads) in bead buffer (50 mM Tris, pH 7.5, 0.01% Tween20). The additions were carried out under dark conditions to protect the detection beads from light. A lid was placed on top of the plate and incubated for 1 hour at room temperature, then the luminescence was read on a PerkinElmer Envision instrument. The concentration of each compound for 50% inhibition (IC50) was calculated by non-linear regression using XL Fit data analysis software.

SMILES	IC50 [nM]
CCCS(=O)(=O)Nc1cc(Cl)cc(-c2[nH]c(C3CC3)nc2-c2ccnc(NC[C@H](C)NC(=O)OC)n2)c1F [Example 1W, (S)-Methyl 1-(4-(5-(5-chloro-2-fluoro-3-(propylsulfonamido)phenyl)-2-cyclopropyl-1H-imidazol-4-yl)pyrimidin-2-ylamino)propan-2-ylcarbamate]	0.89
CCS(=O)(=O)Nc1cc(Cl)cc(-c2nc(C(C)(C)C)[nH]c2-c2ccnc(NC[C@H](C)NC(=O)OC)n2)c1F [Example 1AJ, (S)-Methyl 1-(4-(2-tert-butyl-4-(5-chloro-3-(ethylsulfonamido)-2-fluorophenyl)-1H-imidazol-5-yl)pyrimidin-2-ylamino)propan-2-ylcarbamate]	0.46
COC(=O)N[C@@H](C)CNc1nccc(-c2nc(C3CC3)[nH]c2-c2cc(Cl)cc(NS(=O)(=O)CCC(F)(F)F)c2F)n1 [Example 1AA, (S)-Methyl 1-(4-(5-(5-chloro-2-fluoro-3-(3,3,3-trifluoropropylsulfonamido)phenyl)-2-cyclopropyl-1H-imidazol-4-yl)pyrimidin-2-ylamino)propan-2-ylcarbamate]	0.6
CS(=O)(=O)Nc1cc(F)cc(-c2nc(C3CC3)[nH]c2-c2ccnc(N)n2)c1Cl [Example 1BQ, N-(3-(5-(2-Aminopyrimidin-4-yl)-2-cyclopropyl-1H-imidazol-4-yl)-2-chloro-5-fluorophenyl)methanesulfonamide]	12
COC(=O)N[C@@H](C)CNc1nccc(-c2[nH]c(C3CC3)nc2-c2cccc(NS(C)(=O)=O)c2Cl)n1 [Example 1T, (S)-Methyl 1-(4-(4-(2-chloro-3-(methylsulfonamido)phenyl)-2-cyclopropyl-1H-imidazol-5-yl)pyrimidin-2-ylamino)propan-2-ylcarbamate]	0.47
COC(=O)N[C@@H](C)CNc1nccc(-c2[nH]c(C(C)(C)C)nc2-c2cc(NS(=O)(=O)C3CC3)c(C)c(OC)c2)n1 [Example 1L, (S)-Methyl 1-(4-(2-tert-butyl-4-(3-(cyclopropanesulfonamido)-5-methoxy-4-methylphenyl)-1H-imidazol-5-yl)pyrimidin-2-ylamino)propan-2-ylcarbamate]	157
COC(=O)N[C@@H](C)CNc1nccc(-c2[nH]c(C3CC3)nc2-c2cc(Cl)cc(NS(=O)(=O)C(C)C)c2)n1 [Example 1M, (S)-Methyl 1-(4-(4-(3-chloro-5-(1-methylethylsulfonamido)phenyl)-2-cyclopropyl-1H-imidazol-5-yl)pyrimidin-2-ylamino)propan-2-ylcarbamate]	0.63

Continued by falling IC50, values first:

IC50 [nM]	SMILES
0.45	CCCS(=O)(=O)Nc1ccc(F)c(-c2nc(C3CC3)[nH]c2-c2ccnc(NC[C@H](C)NC(=O)OC)n2)c1Cl [Example 1AF, Methyl (2S)-1-(4-(4-(2-chloro-6-fluoro-3-(propylsulfonamido)phenyl)-2-cyclopropyl-1H-imidazol-5-yl)pyrimidin-2-ylamino)propan-2-ylcarbamate]
0.39	CCCNc1nccc(-c2[nH]c(C3CC3)nc2-c2cc(F)cc(NS(=O)(=O)CCC)c2Cl)n1 [Example 1AN, N-(2-Chloro-3-(2-cyclopropyl-5-(2-(propylamino)pyrimidin-4-yl)-1H-imidazol-4-yl)-5-fluorophenyl)propane-1-sulfonamide]
0.32	COC(=O)N[C@@H](C)CNc1nccc(-c2[nH]c(C(C)(C)C)nc2-c2cc(Cl)cc(NS(C)(=O)=O)c2)n1 [Example 1C, (S)-Methyl 1-(4-(2-tert-butyl-4-(3-chloro-5-(methylsulfonamido)phenyl)-1H-imidazol-5-yl)pyrimidin-2-ylamino)propan-2-ylcarbamate]
0.24	CCS(=O)(=O)Nc1cc(Cl)cc(-c2[nH]c(C3CC3)nc2-c2ccnc(NC[C@H](C)NC(=O)OC)n2)c1F [Example 1Z, (S)-Methyl 1-(4-(5-(5-chloro-3-(ethylsulfonamido)-2-fluorophenyl)-2-cyclopropyl-1H-imidazol-4-yl)pyrimidin-2-ylamino)propan-2-ylcarbamate]
